Square brackets hold non-standard residues; d marks the D form. Peptide text beside a SMILES is read from it. * marks the point of attachment. pY = N[C@@H](Cc1ccc(OP(=O)(O)O)cc1)C(=O)O; Hydrocinnamoyl = O=C(CCc1ccccc1)*; Ac6c = NC1(C(=O)O)CCCCC1; Cbz = O=C(OCc1ccccc1)*
Tests used:
[1] = target: T1, Growth factor receptor-bound protein 2 (Homo sapiens, UniProt P62993); test: Binding affinity to Grb2 SH2 domain (unknown origin) by isothermal titration calorimetry
[2] = target: T1, Growth factor receptor-bound protein 2; test: Binding affinity to Grb2 SH2 domain (60 to 151) (unknown origin) expressed in Escherichia coli BL21(DE3) after overnight incubation by ELISA

Row | Structure (SMILES) | Ka [1] | IC50 [2]
1 | C[C@](NC(=O)[C@H](Cc1ccc(OP(=O)(O)O)cc1)NC(=O)OCc1cccc(N)c1)(C(=O)N[C@@H](CC(N)=O)C(N)=O)c1ccc(OP(=O)(O)O)cc1 | – | 13 nM
2 | NC(=O)C[C@H](NC(=O)C1(NC(=O)[C@H](Cc2ccc(OP(=O)(O)O)cc2)NC(=O)OCc2cccc(N)c2)CCCCC1)C(N)=O | 8.8 ×10⁶ /M | –
3 | CC(=O)N[C@@H](Cc1ccc(OP(=O)(O)O)cc1)C(=O)NC1(C(=O)N[C@@H](CC(N)=O)C(N)=O)CCCCC1 (HELM PEPTIDE1{[ac].[O=C([C@H](Cc1ccc(OP(=O)(O)O)cc1)N[*:1])[*:2]].[O=C(C1(N[*:1])CCCCC1)[*:2]].N.[am]}$$$$V2.0) | 7 ×10⁶ /M | –
4 | Cn1cc(CCC(=O)N[C@@H](Cc2ccc(OP(=O)(O)O)cc2)C(=O)NC2(C(=O)N[C@@H](CC(N)=O)C(N)=O)CCCCC2)c2ccccc21 | 11.4 ×10⁶ /M | –

Continued, in another order:

Row | Ka [1] | Structure (SMILES) | IC50 [2]
5 | 6.5 ×10⁶ /M | NC(=O)C[C@H](NC(=O)C1(NC(=O)[C@H](Cc2ccc(OP(=O)(O)O)cc2)NC(=O)OCc2ccccc2)CCCCC1)C(N)=O (Cbz-[pY]-[Ac6c]-Asn-NH2) | –
6 | 28.8 ×10⁶ /M | NC(=O)C[C@H](NC(=O)C1(NC(=O)[C@H](Cc2ccc(OP(=O)(O)O)cc2)NC(=O)CCC2CCCCC2)CCCCC1)C(N)=O | –
7 | 23.4 ×10⁶ /M | NC(=O)C[C@H](NC(=O)C1(NC(=O)[C@H](Cc2ccc(OP(=O)(O)O)cc2)NC(=O)CCc2ccccc2)CCCCC1)C(N)=O (Hydrocinnamoyl-[pY]-[Ac6c]-Asn-NH2) | –

Reference: ChEMBL document CHEMBL3297721, “Protein-ligand interactions: probing the energetics of a putative cation-π interaction” (Bioorg Med Chem Lett, 2014)
